According to patent US12351587B2, “Bicyclic compound as RIP-1 kinase inhibitor and application thereof” (MEDSHINE DISCOVERY INC., priority 2019, dated 2025):

Test system: U937 cells
Test: U937 cell activity assay: TNFα/QVD-OPh-induced programmed cell necrosis (necroptosis)
Assay type: cell-based, human
Details: Homo sapiens, U-937, 24 h, QVD-OPh 25 μM + TNF-α 100 ng/mL, CellTiter Glo
Protocol: 1.2 Instrument and Materials
Envision plate reader (Perkin Elmer, Cat #2104-0010)
1.3 Formulation of Reagents • (1) 1×DPSB: To 100 mL of 10×DPBS was added 900 mL of deionized water. • (2) 1640 complete medium: To 89 mL of RPMI-1640 medium were added 10 mL of FBS and 1 mL of penicillin/streptomycin 2. Assay Steps • 1. U937 cells were centrifuged, and then the medium was discarded. The cells were resuspended in 1640 complete medium and counted. The cell concentration was adjusted to 5×10^5 cells/mL for use, and the cells were arranged according to compounds to be assayed. • 2. To the prepared resuspension of U937 cells were added QVD-OPh at a final concentration of 25 μM and TNF-α at a final concentration of 100 ng/mL, and then the mixture was mixed gently. • 3. To a 384-well plate was added 30 μL/well of U937 cells containing 25 μM of QVD-OPh and TNF-α at a final concentration of 100 ng/mL, and blank control wells without QVD-OPh and TNF-α were set up. • 4. To the dosing group […] added 10 μL of the assay compound at 4 times the preset concentration, and to the blank control well was added DMSO at the corresponding concentration. • 5. The 384-well plate was placed in a 37° C. and 5% CO2 cell incubator for 24 hours. • 6. After 24 hours, the 384-well plate was taken out and equilibrated at room temperature for 20 minutes. • 7. 40 μL of CTG was added to each well, and then the plate was shaken on a shaker in the dark for 2 minutes. • 8. The plate was incubated at room temperature in the dark for 10 minutes, and then read using an Envision plate reader.

Row | SMILES | IC50
1 | O=C(N[C@H]1CCc2cc(F)cc(F)c2NC1=S)c1nc(Cc2ccccc2)n[nH]1 [WX014] | 3.7 nM
2 | CN1C(=S)[C@@H](NC(=O)c2nc3n(n2)[C@H](c2ccccc2)CC3)COc2cccnc21 [WX013] | 1.8 nM
3 | Cc1ccccc1Cn1cnc(C(=O)N[C@H]2COc3cccnc3N(C)C2=S)n1 [WX035] | 4.9 nM
4 | [2H]C([2H])([2H])N1C(=S)[C@@H](NC(=O)c2n[nH]c(Cc3ccccc3)n2)COc2cccnc21 [WX005] | 2 nM
5 | CN1C(=S)[C@@H](NC(=O)c2cc(Oc3ccccc3)ccn2)COc2cccnc21 [WX026] | 5 nM
6 | CN1C(=S)[C@@H](NC(=O)c2nc3n(n2)CCO[C@H]3c2ccccc2)COc2cccnc21 (single isomer, unassigned) [WX028] | 4.7 nM
7 | CN1C(=S)[C@@H](NC(=O)c2ncn(Cc3ccc(OC(F)(F)F)cc3)n2)COc2cccnc21 [WX038] | 238 nM
8 | Cc1nc(C(=O)N[C@H]2COc3cccnc3N(C)C2=S)nn1Cc1ccccc1 [WX016] | 9.8 nM
9 | CN1C(=S)[C@@H](NC(=O)c2nc(Cc3ccccc3)n[nH]2)COc2ccccc21 [WX001] | 0.5 nM
10 | CN1C(=S)[C@@H](NC(=O)c2ncn(Cc3cccc(Cl)c3)n2)COc2cccnc21 [WX036] | 6.4 nM
11 | CN1C(=S)[C@@H](NC(=O)c2nc(Cc3cccc(C#N)c3)n[nH]2)COc2cccnc21 [WX004] | 0.3 nM
12 | CN1C(=S)[C@@H](NC(=O)c2nc(Cl)n(Cc3ccccc3)n2)COc2cccnc21 [WX011] | 1.7 nM
13 | CN1C(=S)[C@@H](NC(=O)c2cn(Cc3ccccc3)cn2)COc2cccnc21 [WX006] | 9 nM
14 | CN1C(=S)[C@@H](NC(=O)c2ncn(Cc3ccccc3F)n2)COc2cccnc21 [WX019] | 0.6 nM
15 | CN1C(=S)[C@@H](NC(=O)c2ncn(Cc3ccccc3)n2)COc2ccc(C(N)=O)cc21 [WX040] | 4.8 nM
16 | Cc1cccc(Cn2cnc(C(=O)N[C@H]3COc4cccnc4N(C)C3=S)n2)c1 [WX033] | 7.6 nM
17 | CN1C(=S)[C@@H](NC(=O)c2ncn(Cc3ccccc3)n2)COc2ccc(C(=O)O)cc21 [WX024] | 43 nM
18 | CN1C(=S)[C@@H](NC(=O)c2ncn(Cc3ccccc3)n2)COc2ccncc21 [WX025] | 12 nM
19 | COc1ccccc1Cn1cnc(C(=O)N[C@H]2COc3cccnc3N(C)C2=S)n1 [WX027] | 20 nM
20 | CN1C(=S)[C@@H](NC(=O)c2ncn(Cc3ccccc3)n2)COc2cc(Cl)cnc21 [WX021] | 13 nM

Row | SMILES | IC50
21 | CN1C(=S)[C@@H](NC(=O)c2nc(Cc3cccc(C#N)c3)n[nH]2)COc2ccccc21 [WX002] | 1.8 nM
22 | CN1C(=S)[C@@H](NC(=O)c2ncn(Cc3ccccc3)n2)COc2cc(Br)cnc21 [WX023] | 29 nM
23 | CN1C(=S)[C@@H](NC(=O)c2ncn(Cc3cccc(Br)c3)n2)COc2cccnc21 [WX037] | 24 nM
24 | CN1C(=S)[C@@H](NC(=O)c2ncn(Cc3cccc(F)c3)n2)COc2cccnc21 [WX029] | 2.2 nM
25 | CN1C(=S)[C@@H](NC(=O)c2cn(Cc3ccccc3)nn2)COc2cccnc21 [WX010] | 47 nM
26 | COc1cccc(Cn2cnc(C(=O)N[C@H]3COc4cccnc4N(C)C3=S)n2)c1 [WX042] | 24.8 nM
27 | CN1C(=S)[C@@H](NC(=O)c2nc(Cl)n(Cc3cccc(C#N)c3)n2)COc2cccnc21 [WX008] | 8.1 nM
28 | CN1C(=S)[C@@H](NC(=O)c2ncn(Cc3cc(F)cc(F)c3)n2)COc2cccnc21 [WX034] | 3.7 nM
29 | CN1C(=S)[C@@H](NC(=O)c2cc(Cc3ccccc3)on2)COc2cccnc21 [WX007] | 70 nM
30 | CN1C(=S)[C@@H](NC(=O)c2ncn(Cc3cccc(C#N)c3)n2)COc2cccnc21 [WX032] | 5.7 nM
31 | Cc1ccc(Cn2cnc(C(=O)N[C@H]3COc4cccnc4N(C)C3=S)n2)cc1 [WX039] | 3.4 nM
32 | CN1C(=S)[C@@H](NC(=O)c2ncn(Cc3ccc(C(F)(F)F)cc3)n2)COc2cccnc21 [WX041] | 86.5 nM
33 | CN1C(=S)[C@@H](NC(=O)c2ncn(Cc3ccc(F)cc3)n2)COc2cccnc21 [WX031] | 2.4 nM
34 | CN1C(=S)[C@@H](NC(=O)c2ncn(Cc3ccccc3F)n2)COc2cc(Cl)cnc21 [WX022] | 20 nM
35 | CN1C(=S)[C@@H](NC(=O)c2nc(Cc3ccccc3)n[nH]2)COc2cccnc21 [WX003] | 0.5 nM
36 | CN1C(=S)[C@@H](NC(=O)c2ncn(CC34CC(F)(C3)C4)n2)COc2cccnc21 [WX017] | 59 nM
37 | CN1C(=S)[C@@H](NC(=O)c2nnc(Cc3ccccc3)o2)COc2cccnc21 [WX012] | 12.1 nM
38 | COc1ccc(Cn2cnc(C(=O)N[C@H]3COc4cccnc4N(C)C3=S)n2)cc1 [WX030] | 15.6 nM
39 | CN1C(=S)[C@@H](NC(=O)c2ncn(Cc3c(F)cccc3F)n2)COc2cccnc21 [WX020] | 0.6 nM

Same assay, conditions: QVD-OPh 25 μM + TNF-α 100 ng/mL, 24 hours, CellTiter Glo

Row | SMILES | IC50
40 | CN1C(=S)[C@@H](NC(=O)c2nnn(Cc3ccccc3)n2)COc2cccnc21 [WX015] | 5.1 nM
41 | CN1C(=S)[C@@H](NC(=O)c2nnn(Cc3ccccc3)n2)COc2cccnc21 [WX018] | 1.3 nM

Test system: not listed separately
Test: Pharmacokinetic parameters in dogs
Assay type: in vivo
Details: beagle, plasma, 1 mg/kg; dog, iv = 1 mpk
Protocol: Four healthy adult beagle dogs were selected and randomly divided into two groups. One group was given the assay compound by intravenous injection, and the other group was given the assay compound by gavage. Plasma samples were collected respectively from animals in the intravenous group and gavage group at 0.083, 0.25, 0.5, 1.0, 2.0, 4.0, 6.0, 8.0, 24 hours after administration. The blood concentration was determined by LC-MS/MS method. Relevant pharmacokinetic parameters were calculated by WinNonlin™ Version 6.3 (Pharsight. Mountain View, CA) pharmacokinetic software using non-compartmental model and linear logarithmic trapezoidal method. AUC0-last represents the area under the plasma concentration-time curve from zero time point to the last detectable concentration time point; Cmax represents the peak concentration; Tmax represents the time to reach the peak; T1/2 represents the half-life; CL represents the clearance rate; Vdss represents apparent volume of distribution; p.o. represents per os; i.v. represents intravenous injection; and F % represents oral bioavailability.

Row | SMILES | AUC(0-t) | clearance | half-life
42 | CN1C(=S)[C@@H](NC(=O)c2nc3n(n2)[C@H](c2ccccc2)CC3)COc2cccnc21 [WX013] | 7.42 µM·h | 5.18 mL/min/kg | 4.89 h

Same assay, conditions: beagle, plasma, 1 mg/kg; dog, iv = 1 mpk; read-out: Vdss

Row | SMILES | Vd
43 | CN1C(=S)[C@@H](NC(=O)c2nc3n(n2)[C@H](c2ccccc2)CC3)COc2cccnc21 [WX013] | 2.02 L/kg

Same assay, conditions: beagle, plasma, 5 mg/kg; dog, po = 5 mpk

Row | SMILES | AUC(0-t)
44 | CN1C(=S)[C@@H](NC(=O)c2nc3n(n2)[C@H](c2ccccc2)CC3)COc2cccnc21 [WX013] | 27.7 µM·h

Same assay, conditions: beagle, plasma; dog, po = 5 mpk vs iv = 1 mpk

Row | SMILES | bioavailability
45 | CN1C(=S)[C@@H](NC(=O)c2nc3n(n2)[C@H](c2ccccc2)CC3)COc2cccnc21 [WX013] | 80.1%

Test system: L929 cells
Test: In vitro activity assay of mouse RIP1: L929 cell TNFα/QVD-OPh-induced necroptosis
Assay type: cell-based
Details: TNF-α 50 ng/mL + Q-VD 50 μM, 24 h, CellTiter Glo
Protocol: Assay Example 2: In Vitro Activity Assay of Mouse RIP1
L929 (purchased from ATCC, Item No.: CCL-1)
Instrument Microplate reader (Perkin Elmer, Envision) Formulation of Reagents L929 cell complete medium: EMEM+10% horse serum (volume ratio)+1% double antibiotics (volume ratio) Assay Step • 1. The cultured L929 cells were digested with trypsin, centrifuged, resuspended in complete culture medium, and then counted. The cell concentration was then diluted to 1×10^5/mL with complete culture medium. • 2. The cell suspension was added to a 96-well plate at 100 μL per well and incubated at 37° C. and 5% CO2 for 24 h. • 3. Different concentrations of assay compounds were added to each well, and dimethyl sulfoxide was added to the control group. The plate was incubated at 37° C. and 5% CO2 for 1 h. • 4. To each well were added TNF-α at a final concentration of 50 ng/mL and Q-VD at a final concentration of 50 μM, and the plate was incubated at 37° C. and 5% CO2 for 24 h. • 5. To each well was added 50 μL of CellTiter Glo […], and the plate was shaken in the dark for 10 min. • 6. The plate was read on the microplate reader.

Row | SMILES | IC50
46 | CN1C(=S)[C@@H](NC(=O)c2nc3n(n2)[C@H](c2ccccc2)CC3)COc2cccnc21 [WX013] | 0.014 µM
47 | [2H]C([2H])([2H])N1C(=S)[C@@H](NC(=O)c2n[nH]c(Cc3ccccc3)n2)COc2cccnc21 [WX005] | 1.31 µM
48 | CN1C(=S)[C@@H](NC(=O)c2nc3n(n2)CCO[C@H]3c2ccccc2)COc2cccnc21 (single isomer, unassigned) [WX028] | 0.065 µM
49 | CN1C(=S)[C@@H](NC(=O)c2nc(Cc3ccccc3)n[nH]2)COc2ccccc21 [WX001] | 1.16 µM
50 | CN1C(=S)[C@@H](NC(=O)c2nc(Cl)n(Cc3ccccc3)n2)COc2cccnc21 [WX011] | 0.011 µM
51 | CN1C(=S)[C@@H](NC(=O)c2ncn(Cc3ccccc3F)n2)COc2cccnc21 [WX019] | 0.051 µM
52 | CN1C(=S)[C@@H](NC(=O)c2ncn(Cc3ccccc3)n2)COc2cc(Cl)cnc21 [WX021] | 0.445 µM
53 | CN1C(=S)[C@@H](NC(=O)c2ncn(Cc3cccc(F)c3)n2)COc2cccnc21 [WX029] | 0.184 µM
54 | CN1C(=S)[C@@H](NC(=O)c2nc(Cl)n(Cc3cccc(C#N)c3)n2)COc2cccnc21 [WX008] | 0.047 µM
55 | CN1C(=S)[C@@H](NC(=O)c2ncn(Cc3cccc(C#N)c3)n2)COc2cccnc21 [WX032] | 0.255 µM
56 | Cc1ccc(Cn2cnc(C(=O)N[C@H]3COc4cccnc4N(C)C3=S)n2)cc1 [WX039] | 0.064 µM
57 | CN1C(=S)[C@@H](NC(=O)c2ncn(Cc3ccc(F)cc3)n2)COc2cccnc21 [WX031] | 0.174 µM
58 | CN1C(=S)[C@@H](NC(=O)c2nc(Cc3ccccc3)n[nH]2)COc2cccnc21 [WX003] | 1.21 µM
59 | CN1C(=S)[C@@H](NC(=O)c2ncn(Cc3c(F)cccc3F)n2)COc2cccnc21 [WX020] | 0.029 µM
